ChEMBL document CHEMBL1141080, “Discovery of potent orally active thrombin receptor (protease activated receptor 1) antagonists as novel antithrombotic agents” (J Med Chem, 2005)

Legend:
[1] = Area under curve after oral administration to rats in 20% hydroxypropyl-beta-cyclodextrin after 4 hours; conditions: rat, in vivo
[2] = target: T1, Proteinase-activated receptor 1 (Homo sapiens, UniProt P25116)
T1 sequence (P25116 whole entry): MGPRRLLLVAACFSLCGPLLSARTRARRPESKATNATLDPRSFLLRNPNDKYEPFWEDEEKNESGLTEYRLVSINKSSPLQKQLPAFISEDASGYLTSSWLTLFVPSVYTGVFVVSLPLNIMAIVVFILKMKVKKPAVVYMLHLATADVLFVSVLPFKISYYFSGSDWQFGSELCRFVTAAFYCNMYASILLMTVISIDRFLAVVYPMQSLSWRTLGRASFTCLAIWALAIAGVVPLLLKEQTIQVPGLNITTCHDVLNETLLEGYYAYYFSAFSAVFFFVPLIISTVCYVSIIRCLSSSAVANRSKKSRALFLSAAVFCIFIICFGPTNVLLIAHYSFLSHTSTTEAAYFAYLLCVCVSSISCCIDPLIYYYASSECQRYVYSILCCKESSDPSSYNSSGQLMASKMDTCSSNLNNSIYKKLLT
Description: (§1) In vitro inhibitory concentration against human protease activated receptor 1 using [3H]-haTRAP as radioligand

[3] = Maximum plasma concentration after oral administration to rats in 20% hydroxypropyl-beta-cyclodextrin after 4 hours; conditions: rat
[4] = Bioavailability of compound upon oral administration in rat; assay type: ADME, organism-based; conditions: in vivo
[5] = Half life of compound upon iv administration in rat; assay type: ADME, organism-based; conditions: in vivo
[6] = Bioavailability of compound after oral administration in monkey; conditions: cercopithecidae, in vivo
[7] = Maximum plasma concentration upon oral administration in rat
[8] = Half life upon intravenous administration in rat; assay type: ADME, organism-based; conditions: in vivo
[9] = Half life after intravenous administration in monkey; assay type: ADME, organism-based; conditions: cercopithecidae, in vivo
[10] = Bioavailability of compound after oral administration in rat at a dose of 10 mg/kg; assay type: ADME, organism-based; conditions: in vivo
[11] = target: T1, Proteinase-activated receptor 1; remark: listed apart in the source
Description: as §1

Compound | IC50 [2] | also measured
C[C@H]1OC(=O)[C@@H]2C[C@@H]3CCCC[C@H]3[C@H](/C=C/c3ccc(-c4ccccc4)cn3)[C@H]12 | 27 nM | AUC at 4 h [1]: 0.917 µM·h; Cmax [3]: 453 nM
C[C@H]1OC(=O)[C@@H]2C[C@@H]3CCCC[C@H]3[C@H](/C=C/c3ccc(-c4cccc(S(N)(=O)=O)c4)cn3)[C@H]12 | 100 nM | 
Cc1cccc(-c2ccc(/C=C/[C@H]3[C@@H]4CCCC[C@H]4C[C@H]4C(=O)O[C@H](C)[C@@H]34)nc2)c1 | 13 nM | AUC at 4 h [1]: 0.331 µM·h; Cmax [3]: 380 nM
CC(C)c1cccc(-c2ccc(/C=C/[C@H]3[C@@H]4CCCC[C@H]4C[C@H]4C(=O)O[C@H](C)[C@@H]34)nc2)c1 | 19 nM | AUC at 4 h [1]: 0.258 µM·h; Cmax [3]: 289 nM
CCc1cccc(/C=C/[C@H]2[C@@H]3CCCC[C@H]3C[C@H]3C(=O)O[C@H](C)[C@@H]23)n1 |  | bioavailability [4]: < 3%; half-life [5]: < 1 h
C[C@H]1OC(=O)[C@@H]2C[C@@H]3CCCC[C@H]3[C@H](/C=C/c3ccc(-c4cccc(F)c4)cn3)[C@H]12 | 35 nM | AUC at 4 h [1]: 3.55 µM·h; Cmax [3]: 1520 nM
C[C@H]1OC(=O)[C@@H]2C[C@@H]3CCCC[C@H]3[C@H](/C=C/c3ccc(-c4cccc(Br)c4)cn3)[C@H]12 | 25 nM | 
C[C@H]1OC(=O)[C@@H]2C[C@@H]3CCCC[C@H]3[C@H](/C=C/c3ccc(-c4ccccc4F)cn3)[C@H]12 | 22 nM | AUC at 4 h [1]: 2.47 µM·h; Cmax [3]: 1080 nM
C[C@H]1OC(=O)[C@@H]2C[C@@H]3CCCC[C@H]3[C@H](/C=C/c3ccc(-c4cccc(Cl)c4)cn3)[C@H]12 | 10 nM | AUC at 4 h [1]: 4.11 µM·h; Cmax [3]: 1460 nM
COc1ccccc1-c1ccc(/C=C/[C@H]2[C@@H]3CCCC[C@H]3C[C@H]3C(=O)O[C@H](C)[C@@H]23)nc1 | 11 nM | AUC at 4 h [1]: 0.413 µM·h; Cmax [3]: 419 nM
C[C@H]1OC(=O)[C@@H]2C[C@@H]3CCCC[C@H]3[C@H](/C=C/c3ccc(-c4cccc(C(F)(F)F)c4)cn3)[C@H]12 |  | AUC at 4 h [1]: 6.12 µM·h; bioavailability [6]: 50%; Cmax [7]: 1160 nM; half-life [8]: 3.2 h; half-life [9]: 12.4 h; Cmax [3]: 2300 nM; bioavailability [10]: 30%
C[C@H]1OC(=O)[C@@H]2C[C@@H]3CCCC[C@H]3[C@H](/C=C/c3ccc(-c4ccccc4C(F)(F)F)cn3)[C@H]12 | 46 nM | AUC at 4 h [1]: 2.35 µM·h; Cmax [3]: 1000 nM
COc1cccc(-c2ccc(/C=C/[C@H]3[C@@H]4CCCC[C@H]4C[C@H]4C(=O)O[C@H](C)[C@@H]34)nc2)c1 | 28 nM | AUC at 4 h [1]: 0.012 µM·h; Cmax [3]: 20 nM
C[C@H]1OC(=O)[C@@H]2C[C@@H]3CCCC[C@H]3[C@H](/C=C/c3ccc(-c4ccccc4Cl)cn3)[C@H]12 | 26 nM | AUC at 4 h [1]: 4.29 µM·h; Cmax [3]: 1780 nM
CCOC(=O)c1ccccc1-c1ccc(/C=C/[C@H]2[C@@H]3CCCC[C@H]3C[C@H]3C(=O)O[C@H](C)[C@@H]23)nc1 | 44 nM | 
Cc1ccccc1-c1ccc(/C=C/[C@H]2[C@@H]3CCCC[C@H]3C[C@H]3C(=O)O[C@H](C)[C@@H]23)nc1 |  | AUC at 4 h [1]: 2.81 µM·h; Cmax [3]: 1220 nM
C[C@H]1OC(=O)[C@@H]2C[C@@H]3CCCC[C@H]3[C@H](/C=C/c3ccc(-c4cccc(C#N)c4)cn3)[C@H]12 | 25 nM | 
Cc1ccc(-c2ccc(/C=C/[C@H]3[C@@H]4CCCC[C@H]4C[C@H]4C(=O)O[C@H](C)[C@@H]34)nc2)cc1 (racemic) | 325 nM | 
CCCCc1cccc(/C=C/[C@H]2[C@@H]3CCCC[C@H]3C[C@H]3C(=O)O[C@H](C)[C@@H]23)n1 (racemic) | 143 nM | 
COc1ccc(/C=C/[C@H]2[C@@H]3CCCC[C@H]3C[C@H]3C(=O)O[C@H](C)[C@@H]23)nc1 (racemic) | 325 nM | 
C[C@H]1OC(=O)[C@@H]2C[C@@H]3CCCC[C@H]3[C@H](/C=C/c3ccc(Cc4ccccc4)cn3)[C@H]12 (racemic) | 3680 nM | 

Compound | IC50 [2] | also measured
C[C@H]1OC(=O)[C@@H]2C[C@@H]3CCCC[C@H]3[C@H](/C=C/c3cccc(CO)n3)[C@H]12 (racemic) | 1500 nM | 
C[C@H]1OC(=O)[C@@H]2C[C@@H]3CCCC[C@H]3[C@H](/C=C/c3ccccn3)[C@H]12 (racemic) | 4000 nM | 
COCc1cccc(/C=C/[C@H]2[C@@H]3CCCC[C@H]3C[C@H]3C(=O)O[C@H](C)[C@@H]23)n1 (racemic) | 850 nM | 
C[C@H]1OC(=O)[C@@H]2C[C@@H]3CCCC[C@H]3[C@H](/C=C/c3cccc(Cc4ccccc4)n3)[C@H]12 (racemic) | 900 nM | 
C=Cc1cccc(/C=C/[C@H]2[C@@H]3CCCC[C@H]3C[C@H]3C(=O)O[C@H](C)[C@@H]23)n1 (racemic) | 150 nM | 
CNc1cccc(/C=C/[C@H]2[C@@H]3CCCC[C@H]3C[C@H]3C(=O)O[C@H](C)[C@@H]23)n1 (racemic) | 1250 nM | 
COc1ccc(-c2ccc(/C=C/[C@H]3[C@@H]4CCCC[C@H]4C[C@H]4C(=O)O[C@H](C)[C@@H]34)nc2)cc1 (racemic) | 204 nM | 
CC(C)c1cccc(/C=C/[C@H]2[C@@H]3CCCC[C@H]3C[C@H]3C(=O)O[C@H](C)[C@@H]23)n1 (racemic) | 725 nM | 
CC(C)Cc1cccc(/C=C/[C@H]2[C@@H]3CCCC[C@H]3C[C@H]3C(=O)O[C@H](C)[C@@H]23)n1 (racemic) | 550 nM | 
C[C@H]1OC(=O)[C@@H]2C[C@@H]3CCCC[C@H]3[C@H](/C=C/c3ccc(-c4ccc(F)cc4)cn3)[C@H]12 (racemic) | 467 nM | 
Cc1ccc(/C=C/[C@H]2[C@@H]3CCCC[C@H]3C[C@H]3C(=O)O[C@H](C)[C@@H]23)nc1 (racemic) | 1100 nM | 
C[C@H]1OC(=O)[C@@H]2C[C@@H]3CCCC[C@H]3[C@H](/C=C/c3ccc(-c4ccc(C(F)(F)F)cc4)cn3)[C@H]12 (racemic) | > 300 nM | 
C[C@H]1OC(=O)[C@@H]2C[C@@H]3CCCC[C@H]3[C@H](/C=C/c3cccc(C4CC4)n3)[C@H]12 (racemic) | 210 nM | 
CCCc1cccc(/C=C/[C@H]2[C@@H]3CCCC[C@H]3C[C@H]3C(=O)O[C@H](C)[C@@H]23)n1 (racemic) | 250 nM | 
Cc1cccnc1/C=C/[C@H]1[C@@H]2CCCC[C@H]2C[C@H]2C(=O)O[C@H](C)[C@@H]12 (racemic) | > 5000 nM | 
C[C@H]1OC(=O)[C@@H]2C[C@@H]3CCCC[C@H]3[C@H](/C=C/c3ccc(-c4ccc(Cl)cc4)cn3)[C@H]12 (racemic) | 1000 nM | 
C[C@H]1OC(=O)[C@@H]2C[C@@H]3CCCC[C@H]3[C@H](/C=C/c3ccc(OCc4ccccc4)cn3)[C@H]12 (racemic) | 19 nM | 
Cc1ccnc(/C=C/[C@H]2[C@@H]3CCCC[C@H]3C[C@H]3C(=O)O[C@H](C)[C@@H]23)c1 (racemic) | 2100 nM | 
COc1cccc(/C=C/[C@H]2[C@@H]3CCCC[C@H]3C[C@H]3C(=O)O[C@H](C)[C@@H]23)n1 (racemic) |  | IC50 [11]: Not Active
C[C@H]1OC(=O)[C@@H]2C[C@@H]3CCCC[C@H]3[C@H](/C=C/c3cccc(-c4ccccc4)n3)[C@H]12 (racemic) |  | IC50 [11]: Not Active
CCCCCCc1cccc(/C=C/[C@H]2[C@@H]3CCCC[C@H]3C[C@H]3C(=O)O[C@H](C)[C@@H]23)n1 (racemic) | 3500 nM | 
